# Data reported in the supplement of paper PMC10307832.
# Columns and labels:
# Assay in all cases: relative viability (nuclei count vs DMSO), 5 days (fraction); higher = more cells survive
# [1] = compound: COc1cc2nccc(Oc3ccc(NC(=O)C4(C(=O)Nc5ccc(F)cc5)CC4)cc3)c2cc1OC [Cabozantinib] + COc1cccc2cc(-c3nc([C@H]4CC[C@H](C(=O)O)CC4)n4ncnc(N)c34)[nH]c12 [OSI-027] (partner 0.5 µM)
# Procedure, shortened: (§1)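 Each reported value is a median over duplicate plates. It expresses relative viability: treated-well nuclei count divided by vehicle-well nuclei count. Lung cancer cell lines in 1536-well plates were dosed by pin tool a day after seeding, alone with one drug or with a fixed anchor-drug dose plus five library-drug doses (not always all listed) in √10 steps, and nuclei were counted after 5 days.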
# [2] = compound: C1=CC(=CC=C1NC(=S)NNC2=C(C=C(C=C2[N+](=O)[O-])C(F)(F)F)[N+](=O)[O-])F [Kobe2602] + Cc1nc(Nc2ncc(C(=O)Nc3c(C)cccc3Cl)s2)cc(N2CCN(CCO)CC2)n1 [Dasatinib] (partner 0.075 µM)
# Procedure, shortened: as §1
# [3] = compound: C1=CC(=CC=C1NC(=S)NNC2=C(C=C(C=C2[N+](=O)[O-])C(F)(F)F)[N+](=O)[O-])F [Kobe2602] + Cc1nc(NC(=O)N2CCC[C@H]2C(N)=O)sc1-c1ccnc(C(C)(C)C(F)(F)F)c1 [Alpelisib] (partner 2 µM)
# Procedure, shortened: as §1
# [4] = compound: COc1cc2nccc(Oc3ccc(NC(=O)C4(C(=O)Nc5ccc(F)cc5)CC4)cc3)c2cc1OC [Cabozantinib] + Nc1nc2[nH]cc(CCc3ccc(C(=O)N[C@@H](CCC(=O)O)C(=O)O)cc3)c2c(=O)[nH]1 [Pemetrexed] (partner 0.2 µM)
# Procedure, shortened: as §1
Cell Line,relative viability ([1]; first compound 0.02 µM),relative viability ([1]; first compound 0.06325 µM),relative viability ([1]; first compound 0.2 µM),relative viability ([1]; first compound 0.6325 µM),relative viability ([1]; first compound 2 µM),relative viability ([2]; first compound 0.2 µM),relative viability ([2]; first compound 0.6325 µM),relative viability ([2]; first compound 2 µM),relative viability ([2]; first compound 6.325 µM),relative viability ([2]; first compound 20 µM),relative viability ([3]; first compound 0.2 µM),relative viability ([3]; first compound 0.6325 µM),relative viability ([3]; first compound 2 µM),relative viability ([3]; first compound 6.325 µM),relative viability ([3]; first compound 20 µM),relative viability ([4]; first compound 0.02 µM),relative viability ([4]; first compound 0.06325 µM),relative viability ([4]; first compound 0.2 µM),relative viability ([4]; first compound 0.6325 µM),relative viability ([4]; first compound 2 µM)
A-427,0.375,0.537,0.468,0.486,0.472,0.673,0.766,0.675,0.701,0.779,1.11,1.12,1.06,1.05,1.1,0.949,1.04,0.995,1.02,1
PC-3 [JPC-3],0.652,0.934,–,0.925,0.768,1.01,0.949,0.996,0.944,0.99,1.05,1.04,0.971,1.03,1.02,0.971,1.43,–,1.07,1.2
LOU-NH91,0.65,0.744,–,0.652,0.704,0.506,0.596,0.476,0.535,0.617,0.767,0.752,0.701,0.722,0.778,0.424,0.366,0.487,0.371,0.413
BEN,0.314,0.311,0.28,0.299,0.24,0.322,0.353,0.395,0.303,0.324,1.07,1.12,0.947,0.883,1.03,0.65,0.914,0.781,0.851,0.698
NCI-H2085,0.817,0.756,0.661,0.66,0.642,0.262,0.261,0.24,0.238,0.23,1.04,0.99,0.894,1.01,1.05,0.9,0.974,0.737,0.866,0.744
LC-2-ad,–,0.933,0.74,0.839,0.729,0.562,0.642,0.454,0.636,0.686,0.846,0.866,0.916,0.883,1.01,0.279,0.285,0.271,0.278,0.253
NCI-H1792,–,0.75,0.697,0.664,0.531,0.691,0.949,0.894,0.85,0.787,0.633,0.749,0.696,0.615,0.679,–,1.27,0.868,0.986,0.608
EPLC-272H,0.257,0.326,0.215,0.345,0.29,0.387,0.387,0.303,0.331,0.355,0.883,1.08,0.908,0.885,0.925,0.368,0.37,0.301,0.318,0.282
